Experimental findings from US10604489B2, “Compounds for the treatment of pain” (priority 2018, dated 2020) are described below.

Structures are written as SMILES. Counter-ions that a name gives are not always drawn.

Assay [1] concerns Male Sprague-Dawley rats. As to the kind of experiment: animal or person. The class given is in vivo, rat. The settings on record: sc; minimum dose at which maximal reversal of hind paw weight bearing (50±0.5%) was achieved; subcutaneous administration; rat; read-out: MEMD SC CFA.
In assay [2] the target is T1, human μ opioid receptor (Homo sapiens (Human), UniProt P35372). Kind of assay: Functional activity ([35S]GTPγS binding). Format: biochemical. The settings on record: [35S]GTPγS 0.080 nM, CHO cell membranes, 60 min at 30° C., filtration. The method, boiled down:
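Membranes from stably transfected CHO cells (7.5 μg) incubated with 12 test-compound concentrations and 0.080 nM [35S]GTPγS in 50 mM Tris-HCl pH 7.4, 3 mM MgCl2, 0.2 mM EGTA, 3 μM GDP, 100 mM NaCl, 60 min at 30° C. Nonspecific binding defined with 10 μM GTPγS; bound label collected by filtration and scintillation counting.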
(Binding of GTPγS marks nucleotide exchange on a G protein.)

The target in assay [3] is μ-receptor (Homo sapiens (Human), UniProt P35372). Kind of assay: Receptor binding, competitive displacement of [3H]DAMGO. The note with it: 0.25 nM [3H]DAMGO, CHO cell membrane protein, 60 min at 25° C. The method, boiled down: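 Membranes from CHO cells stably expressing cloned human μ-opioid receptor incubated 60 min at 25 °C with 12 compound concentrations and 0.25 nM [3H]DAMGO in 50 mM Tris-HCl pH 7.5; nonspecific binding with 10 μM naloxone. Filtration and scintillation counting; Ki from IC50 by Cheng-Prusoff.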
(Displacement assays read how much labelled ligand stays bound in the presence of the test substance.)

The target of assay [4] is T1, human μ opioid receptor. Kind of assay: Alternate functional activity ([35S]GTPγS binding) assay, SPA beads. Format: biochemical. The settings on record: alternate assay: [35S]GTPγS 0.020 nM, CHO cell membranes with WGA PVT SPA beads. The protocol:
The [^35S]GTPγS assay measures the functional properties of a compound by quantifying the level of G-protein activation following agonist binding in studies using stably transfected cells, and is considered to be a measure of the efficacy of a compound. Membranes from CHO (Chinese Hamster Ovary) cells that stably expressed one type of the cloned human opioid receptor human were used in the experiments. The assay buffer consisted of 50 mM Tris-HCl, pH 7.4, 3 mM MgCl2, 0.2 mM EGTA, 5 μM GDP, and 100 mM NaCl. CHO cell membranes stably expressing the human p opioid receptor were pre-incubated with scintillation proximity assay beads from PerkinElmer® (WGA PVT SPA) for 30 minutes, at 8 µg membrane and […] beads in a volume of 0.1 mL per reaction. In a final volume of 0.2 mL, 11 different concentrations of each test compound were incubated with the membrane-SPA bead mixture and a final concentration of 0.020 nM [35S]GTPγS for 1.5 hours with gentle shaking. Reactions were then incubated for 5 hours. Data are the mean EC50 values ±S.E.M. EC50 values (nM) for compounds 12, 16, 19, 20, 149, 151, 152, 157, 160, 161, 164-169, 172, 173, 180-197, and 199-207 are shown in Table 1.

`COC1(c2ccnc(C(N)=O)c2)C2CCCC1CN(C[C@H]1CCCO1)C2.Cl` (single isomer, unassigned) [Compound 136]: the minimal effective dose in assay [1] came to 0.3 mg/kg.

Regarding `COC1(c2cccc(C(N)=O)c2)C2CCCC1CN(C[C@@H]1CCOC1)C2.Cl` (single isomer, unassigned) [Compound 143], in assay [1], the minimal effective dose came out at 1 mg/kg.

What is called EC50 is the concentration at which the effect is half-maximal. Higher therefore signals lower potency in that assay. As a reminder, the Ki is a dissociation constant, usually derived from enzyme kinetics or from competition with a known ligand. Read a high Ki as lower affinity. On to `COC1(c2ccnc(C(N)=O)c2)C2CCCC1CN([C@H]1CC[C@@H]1c1ccccc1)C2` (stereo partly drawn) [Compound 117, 4-((1R,5S,9s)-9-methoxy-3-((1S,2R)-2-phenylcyclobutyl)-3-azabicyclo[3.3.1]nonan-9-yl)picolinamide hydrochloride], for which the EC50 in assay [2] is 10 to 75 nM. Besides, in assay [3], the Ki lay in the range of 1 to 5 nM.

In assay [2], `CCCC(C)N1CC2CCCC(C1)C2(OC)c1ccnc(C(N)=O)c1` [Compound 118, 4-((1R,5S,9r)-9-methoxy-3-(pentan-2-yl)-3-azabicyclo[3.3.1]nonan-9-yl)picolinamide hydrochloride] came in with an EC50 of 10 to 75 nM. Moreover, the inhibition constant (Ki) in assay [3] was 1 to 5 nM.

`COC1(c2ccnc(C(N)=O)c2)C2CCCC1CN(Cc1cncn1C)C2` [Compound 121, 4-((1R,5S,9r)-9-methoxy-3-((1-methyl-1H-imidazol-5-yl)methyl)-3-azabicyclo[3.3.1]nonan-9-yl)picolinamide hydrochloride]: the EC50 in assay [2] was over 75 nM. In addition, in assay [3], the Ki was 1 to 5 nM.

Take `COC1(c2ccnc(C(N)=O)c2)C2CCCC1CN(Cc1ccno1)C2` [Compound 124, 4-((1R,5S,9r)-3-(isoxazol-5-ylmethyl)-9-methoxy-3-azabicyclo[3.3.1]nonan-9-yl)picolinamide hydrochloride]: the half-maximal effective concentration (EC50) in assay [2] was over 75 nM. The inhibition constant Ki in assay [3] was over 5 nM.

As for `COC1(c2cccc(C(N)=O)c2)C2CCCC1CN(C1CC3(CCC3)C1)C2` [Compound 129, 3-((1R,5S,9r)-9-methoxy-3-(spiro[3.3]heptan-2-yl)-3-azabicyclo[3.3.1]nonan-9-yl)benzamide hydrochloride], the EC50 in assay [2] was under 10 nM. The molecule also came in with a Ki in assay [3] of under 1 nM.

As for `COC1(c2ccnc(C(N)=O)c2)C2CCCC1CN([C@H]1C[C@@H](C)C1)C2` (stereo partly drawn) [Compound 130, 4-((1R,5S,9R)-9-methoxy-3-((1s,3S)-3-methylcyclobutyl)-3-azabicyclo[3.3.1]nonan-9-yl)picolinamide hydrochloride], the concentration giving a half-maximal response (EC50) in assay [2] fell in the range of 10 to 75 nM. In assay [3], this molecule came in with an inhibition constant Ki of under 1 nM.

As for `COC1(c2ccnc(C(N)=O)c2)C2CCCC1CN([C@H]1C[C@H](C)C1)C2` (stereo partly drawn) [Compound 131, 4-((1R,5S,9R)-9-methoxy-3-((1r,3R)-3-methylcyclobutyl)-3-azabicyclo[3.3.1]nonan-9-yl)picolinamide hydrochloride], in assay [2], the EC50 was in the range of 10 to 75 nM. The molecule further gave a Ki in assay [3] of 1 to 5 nM.

`COC1(c2ccnc(C(N)=O)c2)C2CCCC1CN([C@H]1CCCOC1)C2` (stereo partly drawn) [Compound 132, 4-((1R,5S,9s)-9-methoxy-3-((S)-tetrahydro-2H-pyran-3-yl)-3-azabicyclo[3.3.1]nonan-9-yl)picolinamide hydrochloride] gave a concentration giving a half-maximal response (EC50) in assay [2] of over 75 nM. The inhibition constant (Ki) in assay [3] lay within 1 to 5 nM.

Take `COC1(c2ccnc(C(N)=O)c2)C2CCCC1CN([C@H]1C[C@@H](OC)C1)C2` (stereo partly drawn) [Compound 139, 4-((1R,5S,9R)-9-methoxy-3-((1r,3R)-3-methoxycyclobutyl)-3-azabicyclo[3.3.1]nonan-9-yl)picolinamide hydrochloride]: in assay [2], the EC50 lay in the range of 10 to 75 nM. This molecule yielded an inhibitory constant (Ki) in assay [3] of under 1 nM.

In assay [2], `COC1(c2ccnc(C(N)=O)c2)C2CCCC1CN(Cc1n[nH]c3ccccc13)C2` [Compound 142, 4-((1R,5S,9r)-3-((1H-indazol-3-yl)methyl)-9-methoxy-3-azabicyclo[3.3.1]nonan-9-yl)picolinamide hydrochloride] showed an EC50 of under 10 nM. The molecule further yielded a Ki in assay [3] of under 1 nM.

For the molecule `COC1(c2cccc(C(N)=O)c2)C2CCCC1CN(CCS(C)(=O)=O)C2` [Compound 150, 3-((1R,5S,9r)-9-methoxy-3-(2-(methylsulfonyl)ethyl)-3-azabicyclo[3.3.1]nonan-9-yl)benzamide hydrochloride], the EC50 in assay [2] was over 75 nM. This molecule had an inhibition constant Ki in assay [3] of 1 to 5 nM.

For the molecule `COC1(c2cccc(C(N)=O)c2)C2CCCC1CN(Cc1n[nH]c3ccccc13)C2` [Compound 154, 3-((1R,5S,9r)-3-((1H-indazol-3-yl)methyl)-9-methoxy-3-azabicyclo[3.3.1]nonan-9-yl)benzamide hydrochloride], the 50% effective concentration (EC50) in assay [2] is under 10 nM. The same molecule came in with a Ki in assay [3] of under 1 nM.

`COC1(c2cccc(C(N)=O)c2)C2CCCC1CN(C[C@@H]1C[C@@H]3C[C@@H]3C1)C2` (stereo partly drawn) [Compound 156, 3-((1R,5S,9R)-3-((1R,3r,5S)-bicyclo[3.1.0]hexan-3-ylmethyl)-9-methoxy-3-azabicyclo[3.3.1]nonan-9-yl)benzamide hydrochloride] registered an EC50 in assay [2] of under 10 nM. The same molecule gave an inhibitory constant (Ki) in assay [3] of under 1 nM.

For the molecule `COC1(c2cccc(C(N)=O)c2)C2CCCC1CN(CCC(F)F)C2` (stereo not shown) [Compound 159], in assay [2], the EC50 is under 10 nM. Also, the Ki in assay [3] is under 1 nM.

As to `COC1(c2ccnc(C(N)=O)c2)C2CCCC1CN(C[C@H]1C[C@H]3CC[C@@H](C1)O3)C2` (stereo partly shown) [Compound 164], the EC50 in assay [4] was 10 to 75 nM.

`COC1(c2ccnc(C(N)=O)c2)C2CCCC1CN(C[C@@H]1C[C@H]3CC[C@@H](C1)O3)C2` (stereo partly shown) [Compound 165] came in with a 50% effective concentration (EC50) in assay [4] of 10 to 75 nM.

Molecule `COC1(c2cccc(C(N)=O)c2)C2CCCC1CN(C[C@H]1C[C@H]3CC[C@@H](C1)O3)C2` (stereo partly shown) [Compound 166] showed an EC50 in assay [4] of under 10 nM.

For `COC1(c2cccc(C(N)=O)c2)C2CCCC1CN(C[C@@H]1C[C@H]3CC[C@@H](C1)O3)C2` (stereo partly shown) [Compound 167], the half-maximal effective concentration (EC50) in assay [4] is under 10 nM.

Take `COC1(c2ccnc(C(N)=O)c2)C2CCCC1CN(C[C@H]1CCCCO1)C2` (stereo partly shown) [Compound 168]: the EC50 in assay [4] fell in the range of 10 to 75 nM.

In the case of `COC1(c2ccnc(C(N)=O)c2)C2CCCC1CN(C[C@@H]1CCCCO1)C2` (stereo partly shown) [Compound 169], the EC50 in assay [4] lay within 10 to 75 nM.

For the molecule `COC1(c2cc(C(N)=O)ccc2C)C2CCCC1CN(C)C2` (stereo not shown) [Compound 172], the EC50 in assay [4] is over 75 nM.

`COC1(c2cc(C(N)=O)ccc2F)C2CCCC1CN(C)C2` (stereo not shown) [Compound 173] yielded an EC50 in assay [4] of 10 to 75 nM.

`COC1(c2cccc(C(N)=O)c2)C2CCCC1CN(C[C@@H]1[C@@H]3COC[C@@H]31)C2` (stereo partly shown) [Compound 175] had an EC50 in assay [2] of 10 to 75 nM. For the same molecule, in assay [3], the Ki was under 1 nM.

As to `COC1(c2cc(F)cc(C(N)=O)c2)C2CCCC1CNC2` (stereo not shown) [Compound 181], the EC50 in assay [4] lay in the range of 10 to 75 nM.

`NC(=O)c1cccc(C2(OCC(F)(F)F)C3CCCC2CNC3)c1` (stereo not shown) [Compound 184] yielded an EC50 in assay [4] of 10 to 75 nM.

In the case of `CCOC1(c2cc(Cl)cc(C(N)=O)c2)C2CCCC1CNC2` (stereo not shown) [Compound 185], the half-maximal effective concentration (EC50) in assay [4] is over 75 nM.

For `CCOC1(c2cc(C(N)=O)ccc2F)C2CCCC1CNC2` (stereo not shown) [Compound 186], the EC50 in assay [4] lay in the range of 10 to 75 nM.

As for `COC1(c2cccc(C(N)=O)c2)C2CCCC1CN([C@H](C)c1n[nH]c3cnccc13)C2` (stereo partly shown) [Compound 189], in assay [4], the EC50 was 10 to 75 nM.

`COC1(c2cccc(C(N)=O)c2)C2CCCC1CN([C@@H](C)c1n[nH]c3cnccc13)C2` (stereo partly shown) [Compound 190] registered an EC50 in assay [4] of under 10 nM.

`COC1(c2cccc(C(N)=O)c2)C2CCCC1CN(Cc1n[nH]c3cnccc13)C2` (stereo not shown) [Compound 191]: in assay [4], the EC50 was in the range of 10 to 75 nM.

`CCOC1(c2cc(F)cc(C(N)=O)c2)C2CCCC1CNC2` (stereo not shown) [Compound 192] yielded a half-maximal effective concentration (EC50) in assay [4] of 10 to 75 nM.

`CCOC1(c2cc(C)cc(C(N)=O)c2)C2CCCC1CNC2` (stereo not shown) [Compound 193] returned a 50% effective concentration (EC50) in assay [4] of over 75 nM.

Molecule `COC1(c2cc(C(N)=O)ccc2F)C2CCCC1CN(C)C2` (stereo not shown) [Compound 194] came in with a 50% effective concentration (EC50) in assay [4] of 10 to 75 nM.

As to `COC1(c2ccnc(C(N)=O)c2)C2CCCC1CN(C1(C)CCC1)C2` (stereo not shown) [Compound 201], in assay [4], the 50% effective concentration (EC50) is 10 to 75 nM.

On to `COC1(c2ccnc(C(N)=O)c2)C2CCCC1CN(C1CC3CCC(C1)O3)C2` (stereo not shown) [Compound 204], for which, in assay [4], the EC50 lay within 10 to 75 nM.

Regarding `COC1(c2cccc(C(N)=O)c2)C2CCCC1CN(C1CC3CCC(C1)O3)C2` (stereo not shown) [Compound 205], in assay [4], the EC50 was under 10 nM.

With `COC1(c2ccnc(C(N)=O)c2)C2CCCC1CN([C@H](C)c1cnn[nH]1)C2` (stereo partly shown) [Compound 206], the half-maximal effective concentration (EC50) in assay [4] is over 75 nM.

Turning to `CCOC1(c2cccc(C(N)=O)c2O)C2CCCC1CNC2` (stereo not shown) [Compound 207], the EC50 in assay [4] is over 75 nM.
